Tests used:
Assay type in all cases: in vivo
[1] = system: Frankliniella occidentalis; assay: Insecticidal activity, spray on pre-infested radish plants: Frankliniella occidentalis; settings: Frankliniella occidentalis, 144 h, spray, 6 days, read-out: fatality rate on Frankliniella occidentalis
Method: (§1) For determination of insecticidal activity, the test method was as follows: a test solution with a desired concentration was prepared by dissolving a test compound sample in a suitable solvent (the kind of solvent was such as acetone, methanol, DMSO, etc., and was selected according to its dissolving ability for the sample). The test cell was composed of a small open container with 12-15 day old radish plants inside. The plants were pre-infested by placing 30-40 pests located on one leaf cut from the cultivated plant on one leaf of the test plant (leaf cutting method). As the leaves dehydrated, the pests moved on the test plants. After the pre-infesting, the soil of the test cells was covered with a layer of sand.
The test method was as follows: the test was repeated for three times, and after spraying the formulated test compound, each test unit was allowed to dry for 1 hour, and then a black mesh cover was placed at the top. The test units were kept in a growth chamber at 25° C. and 70% relative humidity for 6 days. The mortality (fatality rate) of the insects was then visually assessed for each test unit, and the fatality rate was calculated as follows:
[formula] (1) Test Results for the Control of Frankliniella occidentalis by Exemplary Example Compounds

Plutella xylostella = assay: Insecticidal activity, spray on pre-infested radish plants: Plutella xylostella; settings: Plutella xylostella, 144 h, spray, 6 days, read-out: fatality rate on Plutella xylostella
Method: as §1
(§2) The test method was as follows: the test was repeated for three times, and after spraying the formulated test compound, each test unit was allowed to dry for 1 hour, and then a black mesh cover was placed at the top. The test units were kept in a growth chamber at 25° C. and 70% relative humidity for 6 days. The mortality (fatality rate) of the insects was then visually assessed for each test unit, and the fatality rate was calculated as follows: […]

Pieris rapae = assay: Insecticidal activity, spray on pre-infested radish plants: Pieris rapae; settings: 144 h, spray, 6 days, read-out: fatality rate on Pieris rapae
Method: as §1, §2

Mythimna separata = assay: Insecticidal activity, spray on pre-infested radish plants: Mythimna separata; settings: Mythimna separata, 144 h, spray, 6 days, read-out: fatality rate on Mythimna separata
Method: as §1, §2

Spodoptera litura = assay: Insecticidal activity, spray on pre-infested radish plants: Spodoptera litura; settings: 144 h, spray, 6 days, read-out: fatality rate on Spodoptera litura
Method: as §1, §2

Chilo suppressalis = assay: Insecticidal activity, spray on pre-infested radish plants: Chilo suppressalis; settings: Chilo suppressalis, 144 h, spray, 6 days, read-out: fatality rate on Chilo suppressalis
Method: as §1, §2

Cnaphalocrocis medinalis = assay: Insecticidal activity, spray on pre-infested radish plants: Cnaphalocrocis medinalis; settings: 144 h, spray, 6 days, read-out: fatality rate on Cnaphalocrocis medinalis
Method: as §1, §2

Tetranychus cinnabarinus = assay: Acaricidal activity, slide immersion of female adult mites: Tetranychus cinnabarinus; settings: immersion 5 seconds, checked after 24 hours, read-out: fatality rate on Tetranychus cinnabarinus
Method: The test method was as follows: a test solution with a desired concentration was prepared by dissolving a test compound sample in a suitable solvent (the kind of solvent was such as acetone, methanol, DMSO, etc., and was selected according to its dissolving ability for the sample). A double-sided adhesive tape was cut into 2-3 cm long pieces, the pieces were attached to one end of a microscope slide, paper pieces on the adhesive tape were removed using tweezers, female adult mites which were consistent in size, bright in body color and lively in action were selected using a zero-size brush pen, the backs of the female adult mites were adhered to the double-sided adhesive tape (note: the adhesion should not cover mite feet, mite whiskers and mouthparts), with 4 rows of mites adhered to each piece and 10 heads of the mites adhered to each row.
One end of the glass slide with the mites was immersed into a drug liquid, with slightly shaking for 5 seconds, and then the slide was taken out. The excess drug liquid around the mite body and is surroundings is quickly sucked off using absorbent paper. The slide was placed in the biochemical incubator described above, and the results were checked by using binoculars after 24 hours. The mites were slightly touched by using a brush pen, the mites with immobility in feet were considered to be dead, and the fatality rate was calculated. The fatality rate was calculated as follows: […]

Cc1cc(C2=NOC(c3cc(F)c(F)c(F)c3)(C(F)(F)F)C2)ccc1C(=O)NCc1cnc(Cl)cc1Cl (stereo not drawn) [Compound 8]
> 80%: pest or weed control at 1 ppm [1] | pest or weed control at 10 ppm [1] | pest or weed control at 25 ppm [1] | pest or weed control at 0.1 ppm (Plutella xylostella) | pest or weed control at 1 ppm (Plutella xylostella) | pest or weed control at 10 ppm (Plutella xylostella) | pest or weed control at 0.1 ppm (Pieris rapae) | pest or weed control at 1 ppm (Pieris rapae) | pest or weed control at 10 ppm (Pieris rapae) | pest or weed control at 0.1 ppm (Mythimna separata) | pest or weed control at 1 ppm (Mythimna separata) | pest or weed control at 10 ppm (Mythimna separata) | pest or weed control at 0.1 ppm (Spodoptera litura) | pest or weed control at 1 ppm (Spodoptera litura) | pest or weed control at 10 ppm (Spodoptera litura) | pest or weed control at 0.1 ppm (Chilo suppressalis) | pest or weed control at 1 ppm (Chilo suppressalis) | pest or weed control at 10 ppm (Chilo suppressalis) | pest or weed control at 0.1 ppm (Cnaphalocrocis medinalis) | pest or weed control at 1 ppm (Cnaphalocrocis medinalis) | pest or weed control at 10 ppm (Cnaphalocrocis medinalis) | pest or weed control at 1 ppm (Tetranychus cinnabarinus) | pest or weed control at 10 ppm (Tetranychus cinnabarinus) | pest or weed control at 25 ppm (Tetranychus cinnabarinus)

Cc1cc(C2=NOC(c3cc(F)c(F)c(F)c3)(C(F)(F)F)C2)ccc1C(=O)NCc1ncc(Cl)cc1Cl (stereo not drawn) [Compound 12]
> 80%: pest or weed control at 1 ppm [1] | pest or weed control at 10 ppm [1] | pest or weed control at 25 ppm [1] | pest or weed control at 0.1 ppm (Plutella xylostella) | pest or weed control at 1 ppm (Plutella xylostella) | pest or weed control at 10 ppm (Plutella xylostella) | pest or weed control at 0.1 ppm (Pieris rapae) | pest or weed control at 1 ppm (Pieris rapae) | pest or weed control at 10 ppm (Pieris rapae) | pest or weed control at 0.1 ppm (Mythimna separata) | pest or weed control at 1 ppm (Mythimna separata) | pest or weed control at 10 ppm (Mythimna separata) | pest or weed control at 0.1 ppm (Spodoptera litura) | pest or weed control at 1 ppm (Spodoptera litura) | pest or weed control at 10 ppm (Spodoptera litura) | pest or weed control at 0.1 ppm (Chilo suppressalis) | pest or weed control at 1 ppm (Chilo suppressalis) | pest or weed control at 10 ppm (Chilo suppressalis) | pest or weed control at 0.1 ppm (Cnaphalocrocis medinalis) | pest or weed control at 1 ppm (Cnaphalocrocis medinalis) | pest or weed control at 10 ppm (Cnaphalocrocis medinalis) | pest or weed control at 1 ppm (Tetranychus cinnabarinus) | pest or weed control at 10 ppm (Tetranychus cinnabarinus) | pest or weed control at 25 ppm (Tetranychus cinnabarinus)

Cc1cc(C2=NOC(c3cc(F)c(F)c(F)c3)(C(F)(F)F)C2)ccc1C(=O)NCCc1cnccc1C(F)(F)F (stereo not drawn) [Compound 18]
> 80%: pest or weed control at 1 ppm [1] | pest or weed control at 10 ppm [1] | pest or weed control at 25 ppm [1] | pest or weed control at 0.1 ppm (Plutella xylostella) | pest or weed control at 1 ppm (Plutella xylostella) | pest or weed control at 10 ppm (Plutella xylostella) | pest or weed control at 0.1 ppm (Pieris rapae) | pest or weed control at 1 ppm (Pieris rapae) | pest or weed control at 10 ppm (Pieris rapae) | pest or weed control at 0.1 ppm (Mythimna separata) | pest or weed control at 1 ppm (Mythimna separata) | pest or weed control at 10 ppm (Mythimna separata) | pest or weed control at 0.1 ppm (Spodoptera litura) | pest or weed control at 1 ppm (Spodoptera litura) | pest or weed control at 10 ppm (Spodoptera litura) | pest or weed control at 0.1 ppm (Chilo suppressalis) | pest or weed control at 1 ppm (Chilo suppressalis) | pest or weed control at 10 ppm (Chilo suppressalis) | pest or weed control at 0.1 ppm (Cnaphalocrocis medinalis) | pest or weed control at 1 ppm (Cnaphalocrocis medinalis) | pest or weed control at 10 ppm (Cnaphalocrocis medinalis) | pest or weed control at 1 ppm (Tetranychus cinnabarinus) | pest or weed control at 10 ppm (Tetranychus cinnabarinus) | pest or weed control at 25 ppm (Tetranychus cinnabarinus)

Source: patent US12564193B2, “Isoxazoline-substituted benzamide derivative, and preparation method therefor and use thereof” (SHANDONG UNITED PESTICIDE INDUSTRY CO., LTD., priority 2020, dated 2026)
